Five compounds from ChEMBL document CHEMBL1140598, “A review of anti-infective and anti-inflammatory chalcones” (Eur J Med Chem, 2007) can be followed below.

Experiment [1] is described as follows: Inhibition of LPS-stimulated nitric oxide formation in mouse microglial cells. Format: functional, cell-based.
Experiment [2] has as its system Plasmodium falciparum. Put plainly: Antimalarial activity against chloroquine-sensitive Plasmodium falciparum HB3. Type of experiment: functional, organism-based.
Experiment [3] concerns the target Superoxide dismutase [Fe] (Plasmodium falciparum) (UniProt Q9TW89). As to the kind of experiment: Inhibition of Plasmodium falciparum recombinant superoxide dismutase at 50 uM.
Experiment [4] concerns Plasmodium falciparum. As to the kind of experiment: Antimalarial activity against chloroquine-resistant Plasmodium falciparum Dd2. Type of experiment: functional, organism-based.
Experiment [5] relates to Cladosporium cladosporioides. As to the kind of experiment: Fungicidal activity against Cladosporium cladosporioides. Format: functional.
Experiment [6] deals with Leishmania amazonensis. Put plainly: Antileishmanial activity against Leishmania amazonensis promastigotes. Format: functional. To be noted: read-out: ED50 (the source's name).
Experiment [7] has as its system Leishmania amazonensis. As to the kind of experiment: Antileishmanial activity against Leishmania amazonensis intracellular amastigotes. Type of experiment: functional. To be noted: read-out: ED50 (the source's name).
For another experiment, the system named is Lactococcus lactis. Put plainly: Antibacterial activity against Streptococcus lactis. Type of experiment: functional.
For the next experiment, the system named is Mycobacterium marinum. As to the kind of experiment: Antibacterial activity against Mycobacterium marinum. Format: functional.
Experiment [8] deals with Staphylococcus aureus. Put plainly: Antibacterial activity against methicillin-resistant Staphylococcus aureus ST28. Type of experiment: functional.
A further experiment deals with Bacillus subtilis. As to the kind of experiment: Antibacterial activity against Bacillus subtilis. Format: functional.
In a further experiment the test system is Heyndrickxia coagulans. As to the kind of experiment: Antibacterial activity against Bacillus coagulans. Type of experiment: functional.
Experiment [9] in a line: Inhibition of Leishmania major NADH dehydrogenase.
A short description of experiment [10]: Inhibition of Leishmania major succinate dehydrogenase in human PBMCs crude mitochondria after 60 mins.
In another experiment the test system is Mycobacterium kansasii. As to the kind of experiment: Antibacterial activity against Mycobacterium kansasii. Format: functional.
Experiment [11] has as its system Staphylococcus aureus. As to the kind of experiment: Antibacterial activity against methicillin-sensitive Staphylococcus aureus Smith. Format: functional.
The test system of another experiment is Clostridium sporogenes. Put plainly: Antibacterial activity against Clostridium sporogenes. Type of experiment: functional.
The test system of a further experiment is Leishmania donovani. As to the kind of experiment: Inhibition of Leishmania donovani amastigotes in human monocyte-derived macrophages. Type of experiment: functional, organism-based.
The test system of another experiment is Streptococcus mutans. Put plainly: Antibacterial activity against […]. Format: functional.
For another experiment, the system named is Enterococcus faecium. Put plainly: Antibacterial activity against Enterococcus faecium. Type of experiment: functional.
The test system of experiment [12] is Staphylococcus aureus. As to the kind of experiment: Antibacterial activity against methicillin-resistant Staphylococcus aureus OM505. Format: functional.
Experiment [13] concerns Staphylococcus aureus. Put plainly: Antibacterial activity against methicillin-resistant Staphylococcus aureus K3. Type of experiment: functional.
In another experiment the test system is Bacillus cereus. As to the kind of experiment: Antibacterial activity against Bacillus cereus. Type of experiment: functional.
Experiment [14] has as its system Staphylococcus aureus. As to the kind of experiment: Antibacterial activity against methicillin-resistant Staphylococcus aureus OM481. Format: functional.
Experiment [15] in a line: Inhibition of Leishmania major NADH-cytochrome c reductase.
For experiment [16], the system named is Mycobacterium tuberculosis. Put plainly: Antibacterial activity against Mycobacterium tuberculosis. Type of experiment: functional.
Experiment [17] concerns Staphylococcus aureus. Put plainly: Antibacterial activity against methicillin-sensitive Staphylococcus aureus FDA209P. Format: functional.
A further experiment has as its system Leishmania major. As to the kind of experiment: Growth inhibition of Leishmania major promastigotes assessed as [3H]thymidine incorporation. Format: functional, organism-based. A general note: Uptake of a labelled nucleoside into DNA is a usual measure of proliferation.
A short description of experiment [18]: Inhibition of Leishmania major NADH-dehydrogenase in human PBMCs crude mitochondria after 60 mins.
Experiment [19] in a line: Inhibition of Leishmania major succinate-cytochrome c reductase.
Experiment [20] in a line: Inhibition of Leishmania major succinate dehydrogenase.
In experiment [21] the test system is Staphylococcus aureus. Put plainly: Antibacterial activity against Staphylococcus aureus. Type of experiment: functional, organism-based.
The test system of experiment [22] is Geobacillus stearothermophilus. Put plainly: Antibacterial activity against Bacillus stearothermophilus. Type of experiment: functional.
A short description of experiment [23]: Inhibition of Leishmania donovani fumarate reductase in after 60 mins.
Another experiment relates to Mycobacterium xenopi. As to the kind of experiment: Antibacterial activity against Mycobacterium xenopi. Type of experiment: functional.
The next experiment has as its system Enterococcus faecalis. As to the kind of experiment: Antibacterial activity against Enterococcus faecalis. Type of experiment: functional.
For experiment [24], the system named is Plasmodium falciparum. As to the kind of experiment: Antiplasmodial activity against chloroquine-sensitive Plasmodium falciparum D6. Type of experiment: functional, organism-based.
Experiment [25] concerns Lactiplantibacillus plantarum. Put plainly: Antibacterial activity against Lactobacillus plantarum. Format: functional.
In experiment [26] the test system is Plasmodium falciparum. As to the kind of experiment: Antiplasmodial activity against chloroquine-resistant Plasmodium falciparum W2. Type of experiment: functional, organism-based.
In experiment [27] the test system is Lactobacillus acidophilus. Put plainly: Antibacterial activity against Lactobacillus acidophilus. Type of experiment: functional.
Another experiment relates to Helicobacter pylori. As to the kind of experiment: Growth inhibition of Helicobacter […]. Type of experiment: functional.

Values after ≈ are worked out from the molar mass of the structure shown.

Chain of Superoxide dismutase [Fe] (Plasmodium falciparum) (Q9TW89 whole entry): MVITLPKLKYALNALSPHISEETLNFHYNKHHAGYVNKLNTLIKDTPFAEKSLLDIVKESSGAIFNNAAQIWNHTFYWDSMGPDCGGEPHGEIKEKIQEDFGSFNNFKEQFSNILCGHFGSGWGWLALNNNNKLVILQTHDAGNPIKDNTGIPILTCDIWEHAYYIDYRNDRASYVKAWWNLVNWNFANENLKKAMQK

With `CCCCOc1ccc(OCCCC)c(C(=O)/C=C/c2ccc(Cl)cc2)c1`, it took 0.7 µM to reach half-maximal inhibition in [1] (IC50).
`CC(C)(C)c1ccc(C(=O)/C=C/c2ccc(Br)cc2)cc1`: the results for the IC50 in the experiment with Plasmodium falciparum [2] and in the experiment on Plasmodium falciparum [4] were 37 µM and 27 µM, respectively. Besides, the inhibition (usually the percentage by which the read-out fell short of the control) in experiment [3] was 83%.
In experiment [5], `CC1(C)CCc2c(O)ccc(C(=O)/C=C/c3ccc(O)cc3)c2O1` gave an MIC of 2 µg.
In the case of `COc1cc(O)c(C(=O)/C=C/c2ccccc2)c(O)c1`, the EC50 in the experiment on Leishmania amazonensis [6] amounted to 0.5 µg/mL (≈ 1.85 µM); in the experiment on Leishmania amazonensis [7], 24 µg/mL (≈ 88.8 µM).
`C=CC(C)(C)c1cc(/C=C/C(=O)c2ccc(O)cc2)c(OC)cc1O` [LICOAGROCHACONE A]: the MIC was 8 µg/mL (≈ 23.6 µM) in the experiment on Lactococcus lactis; at most 20 µg/mL against Mycobacterium marinum; 6.25 µg/mL (≈ 18.5 µM) against Staphylococcus aureus [8]; 2 µg/mL (≈ 5.91 µM) against Bacillus subtilis; 2 µg/mL (≈ 5.91 µM) against Heyndrickxia coagulans; at most 20 µg/mL in the experiment on Mycobacterium kansasii. Further, the MIC turned out to be 3.13 µg/mL (≈ 9.25 µM) in the experiment with Staphylococcus aureus [11]; 8 µg/mL (≈ 23.6 µM) against Clostridium sporogenes; 5 µg/mL (≈ 14.8 µM) in the experiment with Streptococcus mutans; 6 µg/mL (≈ 17.7 µM) with Enterococcus faecium; 16 µg/mL (≈ 47.3 µM) in the experiment with Staphylococcus aureus [12]; 6.25 µg/mL (≈ 18.5 µM) with Staphylococcus aureus [13]. The MIC against Bacillus cereus is 3 µg/mL (≈ 8.87 µM); against Staphylococcus aureus [14], 16 µg/mL (≈ 47.3 µM); in experiment [16] it was at most 20 µg/mL; in the experiment with Staphylococcus aureus [17], 16 µg/mL (≈ 47.3 µM); against Staphylococcus aureus [21] it was 3 µg/mL (≈ 8.87 µM); in experiment [22], 2 µg/mL (≈ 5.91 µM). Besides, the MIC in the experiment with Mycobacterium xenopi is at most 20 µg/mL; in the experiment on Enterococcus faecalis it was 6 µg/mL (≈ 17.7 µM); in experiment [25], 5 µg/mL (≈ 14.8 µM); in [27] it was 5 µg/mL (≈ 14.8 µM); in the experiment with Helicobacter pylori, 25 µg/mL (≈ 73.9 µM). Moreover, the 50% inhibitory concentration (IC50) (in general, the concentration at which inhibition is half-maximal) is 460 µM in experiment [9]; 1400 µM in [10]; 0.65 µM in the experiment on Leishmania donovani; 1980 µM in [15]; 4 µM in the experiment with Leishmania major; 1400 µM in experiment [18]. The IC50 in experiment [19] stood at 1520 µM; in experiment [20], 593 µM; in [23], 14 µM; with Plasmodium falciparum [24], 10.3 µM; in the experiment with Plasmodium falciparum [26], 10.3 µM.
